According to patent US20150174202A1, “Methods and Compositions for Modulating Beta Cell Proliferation” (The Board of Trustees of the Leland Stanford Junior …, priority 2011, published 2015):
“Also recorded” adds a separate entry of the source.

Key:
[1] = target: T1, Pdgfr-α (Mus musculus, UniProt P26618); assay: Phosphorylation of Pdgfr-α in cultured mouse islets (western blot); format: cell-based; conditions: 3-week-old mouse islets exposed to PDGF-AA
T1 construct: endogenous in cells; host or cells: primary pancreatic islets from C57BL/6 mice (3-week-old wild-type islets), cultured ex vivo
T1 sequence (P26618 25-1089): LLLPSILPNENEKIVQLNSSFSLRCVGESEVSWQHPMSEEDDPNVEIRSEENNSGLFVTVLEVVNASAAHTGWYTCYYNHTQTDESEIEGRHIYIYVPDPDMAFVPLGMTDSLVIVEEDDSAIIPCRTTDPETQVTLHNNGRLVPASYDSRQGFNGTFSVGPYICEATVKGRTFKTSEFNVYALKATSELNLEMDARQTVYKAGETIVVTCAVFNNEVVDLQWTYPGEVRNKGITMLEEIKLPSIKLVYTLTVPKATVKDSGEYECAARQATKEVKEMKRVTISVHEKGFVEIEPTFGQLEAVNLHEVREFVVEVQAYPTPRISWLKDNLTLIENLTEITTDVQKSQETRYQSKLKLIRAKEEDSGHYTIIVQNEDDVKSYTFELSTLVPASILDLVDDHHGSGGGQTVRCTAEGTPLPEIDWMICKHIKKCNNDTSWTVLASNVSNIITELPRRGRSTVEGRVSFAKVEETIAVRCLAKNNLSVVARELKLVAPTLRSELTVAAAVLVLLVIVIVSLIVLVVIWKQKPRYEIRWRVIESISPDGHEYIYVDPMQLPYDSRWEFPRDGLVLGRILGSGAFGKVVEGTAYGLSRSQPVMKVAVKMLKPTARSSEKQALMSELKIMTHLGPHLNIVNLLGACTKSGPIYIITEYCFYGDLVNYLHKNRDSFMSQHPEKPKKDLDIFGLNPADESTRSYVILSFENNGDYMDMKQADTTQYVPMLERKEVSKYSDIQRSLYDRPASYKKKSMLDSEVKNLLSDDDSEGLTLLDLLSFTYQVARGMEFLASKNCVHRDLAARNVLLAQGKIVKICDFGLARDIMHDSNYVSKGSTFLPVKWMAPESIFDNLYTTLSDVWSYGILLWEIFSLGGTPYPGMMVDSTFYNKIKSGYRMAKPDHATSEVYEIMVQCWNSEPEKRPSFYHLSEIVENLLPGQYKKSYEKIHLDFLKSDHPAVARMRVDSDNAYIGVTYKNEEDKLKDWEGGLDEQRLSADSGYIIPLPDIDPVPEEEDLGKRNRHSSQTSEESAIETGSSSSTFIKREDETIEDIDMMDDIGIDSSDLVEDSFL
Experimental: Mouse pancreatic islets were purified as described in Chen et al. (2009) Genes Dev. 23, 975-985 and used immediately for assays described in the text. To study Ezh2 induction in cultured islets exposed to mitogens, freshly isolated islets from 2-3-week old, and 7-12-month old C57BL/6 mice were recovered and equilibrated overnight at 37° C., 5% CO2 in RPMI-1640 medium supplemented with 0.5% fetal bovine serum (FBS), 0.2% bovine albumin (BSA) and 2% penicillin/streptomycin. Afterwards, islets were distributed into microplates or dishes, and treated with recombinant human PDGF-AA, prolactin or insulin (Sigma), with or without addition of pharmacological inhibitors, including Sunitinib (Selleck), Vargatef (Selleck), U0126 (Sigma), LY294002 (Sigma) or U-73122 (Sigma) at the indicated concentrations. Two days later, islets were harvested for RNA or protein extraction for real-time RTPCR or western blot analyses. To detect phosphorylation of Pdgfr-α by western blot, islets were exposed to PDGF-AA (with or without indicated pharmacological inhibitors) for 90 min before islet harvesting and protein extraction. […] Immunostaining of BrdU and insulin was performed on processed islets, and β-cell proliferation rate was determined by quantifying percentage of insulin+ cells with BrdU+. […]

[2] = test system: Ezh2; assay: Ezh2/Ezh1 expression in cultured mouse islets (real-time RT-PCR, western blot); format: cell-based
Experimental: Mouse pancreatic islets were purified as described in Chen et al. (2009) Genes Dev. 23, 975-985 and used immediately for assays described in the text. To study Ezh2 induction in cultured islets exposed to mitogens, freshly isolated islets from 2-3-week old, and 7-12-month old C57BL/6 mice were recovered and equilibrated overnight at 37° C., 5% CO2 in RPMI-1640 medium supplemented with 0.5% fetal bovine serum (FBS), 0.2% bovine albumin (BSA) and 2% penicillin/streptomycin. Afterwards, islets were distributed into microplates or dishes, and treated with recombinant human PDGF-AA, prolactin or insulin (Sigma), with or without addition of pharmacological inhibitors, including Sunitinib (Selleck), […]0126 (Sigma), LY294002 (Sigma) or U-73122 (Sigma) at the indicated concentrations. Two days later, islets were harvested for RNA or protein extraction for real-time RTPCR or western blot analyses. To detect phosphorylation of Pdgfr-α by western blot, islets were exposed to PDGF-AA (with or without indicated pharmacological inhibitors) for 90 min before islet harvesting and protein extraction. To detect in vitro islet β-cell proliferation stimulated by PDGF-AA, a final concentration of 50 μM BrdU was introduced into each culture dish 24 h before harvest, followed by standard histological processing. Immunostaining of BrdU and insulin was performed on processed islets, and β-cell proliferation rate was determined by quantifying percentage of insulin+ cells with BrdU+. Culture experiments of human islets were performed using a similar procedure described later. Total RNA from freshly isolated or cultured islets after indicated treatments were purified using the Absolutely RNA miniprep purification kit (Stratagene) according to the manufacturer's instructions. RNA concentration was measured with a RiboGreen RNA quantification assay (Invitrogen). One-step quantitative RT-PCR was performed and analysed using an ABI Prism 7300 detection system (Applied Biosystems) with TaqMan one-step RTPCR Master Mix Reagents and appropriate amounts (10-100 ng) of islet total RNA as the template. We calculated the ratio of mRNA for the gene of interest to the amount of internal control mRNA of peptidylprolyl isomerase A (cyclophilin A, PPIA), and then normalized the ratio for each gene to its median. For western blots, total islet protein was prepared from freshly isolated or cultured islets after indicated treatments as described in Chen et al. (2009) Genes Dev. 23, 975-985. Equal amounts of protein were resolved on SDS-PAGE and transferred to polyvinylidine fluoride membranes (Amersham Pharmacia) for immunoblotting with specific antibodies, including rabbit polyclonal anti-human Ezh2 (1:1,000, Millipore), rabbit polyclonal anti-phospho-PDGFR-α ([…]) (1:1,000, Santa Cruz Biotechnologies), rabbit monoclonal anti-PDGFR-α (1:1,000, Cell Signaling), mouse monoclonal anti-β-actin (1:4,000, Sigma), rabbit monoclonal anti-Akt (1:1,500, Cell Signaling), rabbit monoclonal anti-phospho-Ark ([…]) (1:1,000, Cell Signaling), rabbit monoclonal anti-p44/42 MAPK (Erk1/2) (1:1,500, Cell Signaling), rabbit monoclonal anti-phospho-p44/42 MAPK (Erk1/2) […]) (1:1,000, Cell Signaling), rabbit monoclonal anti-PLCγ1 (1:1,000, Cell Signaling) and rabbit monoclonal anti-phospho-PLCγ1 ([…]) (1:1,000, Cell Signaling). Signal was visualized using ECL detection (Amersham Pharmacia) on Kodak film after further incubation with HRP-conjugated secondary antibodies. For phospho-PDGFR-α ([…]) and PDGFR-α detection, signal was amplified by incubating the membrane with biotinylated anti-rabbit-IgG (1:2,000), followed with an incubation with HRP-avidin (1:2,000, Vector Laboratories) and then ECL visualization.

phospho-Pdgfr-α levels [1]: increased
Substance: PDGF-AA: recombinant human PDGF-AA, a homodimer of PDGF alpha polypeptides
Ezh2 mRNA and protein levels ([2]; 3-week-old (juvenile) mouse islets, 2 days exposure): increased; also recorded: induces
Ezh1 expression ([2]; 3-week-old mouse islets, 2 days exposure): but not Ezh1 expression
Ezh2 mRNA and protein levels ([2]; 7- or 9-month-old adult mouse islets exposed to PDGF-AA): not significantly increased
